Patent US20210171948A1, “COMPOSITIONS AND METHODS FOR TARGETING GLYPICAN-2 IN THE TREATMENT OF CANCER” (Shepherd Therapeutics, Inc., priority 2019, published 2021)
d = 2'-deoxy (DNA); r = 2'-OH (RNA)

Experiments:
GPC2 mRNA [1] = assay: GPC2 mRNA knockdown in multiple cancer cell lines, 96 hour (Example 3); assay type: cell-based, human; conditions: 96 hour incubation
Procedure: siRNAs 1-5 from Table 7 were diluted to 40 nM in OptiMEM media and mixed in a 1:3 ratio (weight by volume) with RNAiMAX. This was incubated for 15 minutes at room temperature and dispensed onto cells plated in a 6 well tissue culture plate. Total RNA samples were collected at either 72 hours post transfection to compare knockdown efficiency (FIG. 2A), or at 24, 48, 72 or 96 hours post transfection to determine the extent of GPC2 mRNA knockdown over time (FIG. 2B). Expression levels of mRNA of GPC2 were measured in these samples using primers specific for GPC2 obtained commercially from Thermofisher (Carlsbad, Calif.) and standard qPCR technique.
GPC2 mRNA knockdown and changes in cell viability were assessed in multiple cancer cell lines. Cells were transfected with either a scrambled control siRNA or with GPC2 siRNA sequence 3 or sequence 5 from Table 7 using the RNAiMAX Lipofectamine kit (Invitrogen, Carlsbad, Calif.) as previously described in Example 2, either in 96 well format (for viability assays) or 6 well format (for knockdown assessment). Following a 96 hour incubation period, cells were washed and the viability measurement was assessed using Cell Titer Glo 2.0. Total RNA was isolated from the 6 well plate samples to determine knockdown efficiency.

[2] = system: CHP212, SKNAS and SHSY5Y neuroblastoma cell lines; assay: Cell viability after siRNA transfection, 96 hour (Example 4, FIG. 3B); assay type: cell-based; conditions: 96 hour incubation (FIG. 3B)
Procedure: GPC2 mRNA knockdown was assessed in multiple neuroblastoma cell lines. Cells were transfected with either a scrambled control siRNA, with GPC2 siRNA sequences 3 or 5 from Table 7, or with siRNA sequences generated by Dharmacon (sequences 12-15 from Table 7) using the RNAiMAX Lipofectamine kit (Invitrogen, Carlsbad, Calif.) as previously described. Following a 96 hour incubation period, total RNA samples were collected to compare knockdown efficiency and viability was measured in parallel plated cells.

GPC2 mRNA [3] = assay: GPC2 mRNA knockdown in cell lines of the cisplatin experiment (Example 5); assay type: cell-based, human
Procedure: (§1) GPC2 mRNA was reduced using the indicated siRNAs and changes in cell viability were assessed in multiple cancer cell lines, in combination with Cisplatin treatment. Cells were transfected with either a scrambled control siRNA or with GPC2 siRNA sequences 3 or 5 from Table 7 using the RNAiMAX Lipofectamine kit (Invitrogen, Carlsbad, Calif.), as previously described, in either in 96 well (for viability assays) or 6 well format (for total RNA). Cisplatin was added at increasing concentrations (0 to 30 uM) to transfected cells at 24 hours post transfection. Following a 72 hour incubation period, cell viability was measured using Cell Titer Glo 2.0. Total RNA samples were also isolated to measure knockdown efficiency.

CHLA-172 cells = assay: Cisplatin IC50 in siRNA-transfected cells, Cell Titer Glo 2.0 viability (Example 5); assay type: cell-based
Procedure: as §1

CHLA-90 cells [4] = assay: as above; assay type: cell-based
Procedure: as §1

COV362 cells = assay: as above; assay type: cell-based
Procedure: as §1

KELLY cells = assay: as above; assay type: cell-based
Procedure: as §1

RH30 cells = assay: as above; assay type: cell-based
Procedure: as §1

RH41 cells = assay: as above; assay type: cell-based
Procedure: as §1

SNU16 cells = assay: as above; assay type: cell-based
Procedure: as §1

TC32 cells = assay: as above; assay type: cell-based
Procedure: as §1

TC71 cells = assay: as above; assay type: cell-based
Procedure: as §1

TOV112D cells = assay: as above; assay type: cell-based
Procedure: as §1

CHLA-90 cells [5] = assay: Cyclophosphamide IC50 in siRNA-transfected cells, Cell Titer Glo 2.0 viability (Example 7); assay type: cell-based
Procedure: (§2) GPC2 mRNA expression was reduced with the indicated siRNAs and changes in cell viability were assessed in multiple neuroblastoma cell lines. Cells were transfected with either a control siRNA or with GPC2 siRNA sequences 3, 5 or 7 from Table 7 using the RNAiMAX Lipofectamine kit (Invitrogen, Carlsbad, Calif.) as previously described in 96 wells for viability assays. Cyclophosphamide was added at increasing concentrations (0-20 uM) to transfected cells at 24 hr post transfection. Following a 72 hour incubation period, viability measurements were made using Cell Titer Glo 2.0.

CHP212 cells = assay: as above; assay type: cell-based
Procedure: as §2

SH-SY5Y cells = assay: as above; assay type: cell-based
Procedure: as §2

SK-N-BE2 cells = assay: as above; assay type: cell-based
Procedure: as §2

[6] = GIST-T1 (Gastrointestinal Stromal)

## GPC2 siRNA 5: siRNA duplex: sense CUCAGUAGCCCAGCACUCU[dT][dT] (SEQ ID NO: 211), anti-sense AGAGUGCUGGGCUACUGAG[dT][dT] (SEQ ID NO: 212) (sense CUCAGUAGCCCAGCACUCUTT; antisense AGAGUGCUGGGCUACUGAGTT; sugars from the 5' end r19 d2, backbone not given here; listed as Homo sapiens)
GPC2 mRNA [1]; CHP212 (Neuroblastoma)
  % GPC2 knockdown: 65%
GPC2 mRNA [1]; COV362 (Ovarian Carcinoma)
  % GPC2 knockdown: 79%
GPC2 mRNA [1]; [6]
  % GPC2 knockdown: 76%
GPC2 mRNA [1]; IMR32 (Neuroblastoma)
  % GPC2 knockdown: 25%
GPC2 mRNA [1]; MCF7 (Breast)
  % GPC2 knockdown: 82%
GPC2 mRNA [1]; RH30 (Rhabdomyosarcoma)
  % GPC2 knockdown: 83%
GPC2 mRNA [1]; RH41 (Rhabdomyosarcoma)
  % GPC2 knockdown: 60%
GPC2 mRNA [1]; SKNAS (Neuroblastoma)
  % GPC2 knockdown: 44%
GPC2 mRNA [1]; SNU16 (Gastric)
  % GPC2 knockdown: 25%
GPC2 mRNA [1]; TC32 (Ewing's Sarcoma)
  % GPC2 knockdown: 57%
GPC2 mRNA [1]; TC71 (Ewing's Sarcoma)
  % GPC2 knockdown: 33%
GPC2 mRNA [1]; TOV112D (Ovarian Carcinoma)
  % GPC2 knockdown: 78%
GPC2 mRNA [1]; multiple cancer cell lines
  GPC2 knockdown across the cell lines of Table 8: GPC2 knockdown was observed in each cell line
[2]
  Viability decrease among sequences 3, 5, 12-15: greater viability decrease
GPC2 mRNA [3]; CHLA-90 (Neuroblastoma)
  % GPC2 knockdown: 55%
GPC2 mRNA [3]; CHLA-136 (Neuroblastoma)
  % GPC2 knockdown: 35%
GPC2 mRNA [3]; CHLA-172 (Neuroblastoma)
  % GPC2 knockdown: 8%
GPC2 mRNA [3]; CHP212 (Neuroblastoma)
  % GPC2 knockdown: 70%
GPC2 mRNA [3]; COV362 (Ovarian cancer)
  % GPC2 knockdown: 89%
GPC2 mRNA [3]; [6]
  % GPC2 knockdown: 75%
GPC2 mRNA [3]; KELLY (Neuroblastoma)
  % GPC2 knockdown: 75%
GPC2 mRNA [3]; RH30 (Rhabdomyosarcoma)
  % GPC2 knockdown: 86%
GPC2 mRNA [3]; RH41 (Rhabdomyosarcoma)
  % GPC2 knockdown: 70%
GPC2 mRNA [3]; SH-SY5Y (Neuroblastoma)
  % GPC2 knockdown: 75%
GPC2 mRNA [3]; SK-N-BE2 (Neuroblastoma)
  % GPC2 knockdown: 68%
GPC2 mRNA [3]; SKNAS (Neuroblastoma)
  % GPC2 knockdown: 70%
GPC2 mRNA [3]; SNU16 (Gastric carcinoma)
  % GPC2 knockdown: 52%
GPC2 mRNA [3]; TC32 (Ewing's sarcoma)
  % GPC2 knockdown: 75%
GPC2 mRNA [3]; TC71 (Ewing's sarcoma)
  % GPC2 knockdown: 60%
GPC2 mRNA [3]; TOV112D (Ovarian cancer)
  % GPC2 knockdown: 86%
CHLA-172 cells; CHLA-172
  Data Summary: effect of knockdown on sensitivity to cisplatin: does not increase
CHLA-172 cells; CHLA-172 cells transfected with the labelled siRNA, cisplatin added 24 hours post transfection, 72 hour incubation
  IC50: 17 µM
CHLA-90 cells [4]; CHLA-90
  Data Summary: effect of knockdown on sensitivity to cisplatin: increases sensitivity to
CHLA-90 cells [4]; CHLA-90 cells transfected with the labelled siRNA, cisplatin added 24 hours post transfection, 72 hour incubation
  IC50: 15 µM
COV362 cells; COV362
  Data Summary: effect of knockdown on sensitivity to cisplatin: does not increase
COV362 cells; COV362 cells transfected with the labelled siRNA, cisplatin added 24 hours post transfection, 72 hour incubation
  IC50: 18 µM
KELLY cells; KELLY
  Data Summary: effect of knockdown on sensitivity to cisplatin: increases sensitivity to
KELLY cells; KELLY cells transfected with the labelled siRNA, cisplatin added 24 hours post transfection, 72 hour incubation
  IC50: 2.5 µM
RH30 cells; RH30
  Data Summary: effect of knockdown on sensitivity to cisplatin: does not increase
RH30 cells; RH30 cells transfected with the labelled siRNA, cisplatin added 24 hours post transfection, 72 hour incubation
  IC50: 2.5 µM
RH41 cells; RH41
  Data Summary: effect of knockdown on sensitivity to cisplatin: increases sensitivity to
RH41 cells; RH41 cells transfected with the labelled siRNA, cisplatin added 24 hours post transfection, 72 hour incubation
  IC50: 1 µM
SNU16 cells; SNU16
  Data Summary: effect of knockdown on sensitivity to cisplatin: does not increase
SNU16 cells; SNU16 cells transfected with the labelled siRNA, cisplatin added 24 hours post transfection, 72 hour incubation
  IC50: 16 µM
TC32 cells; TC32
  Data Summary: effect of knockdown on sensitivity to cisplatin: does not increase
TC32 cells; TC32 cells transfected with the labelled siRNA, cisplatin added 24 hours post transfection, 72 hour incubation
  IC50: 1.2 µM
TC71 cells; TC71
  Data Summary: effect of knockdown on sensitivity to cisplatin: does not increase
TC71 cells; TC71 cells transfected with the labelled siRNA, cisplatin added 24 hours post transfection, 72 hour incubation
  IC50: 1.4 µM
TOV112D cells; TOV112D
  Data Summary: effect of knockdown on sensitivity to cisplatin: does not increase
TOV112D cells; TOV112D cells transfected with the labelled siRNA, cisplatin added 24 hours post transfection, 72 hour incubation
  IC50: 7 µM
CHLA-90 cells [5]; CHLA-90
  Data Summary: effect of knockdown on sensitivity to cyclophosphamide: increases sensitivity to
CHLA-90 cells [5]; CHLA-90 cells transfected with the labelled siRNA, cyclophosphamide added 24 hr post transfection, 72 hour incubation
  IC50: 20 µM
CHP212 cells; CHP212
  Data Summary: effect of knockdown on sensitivity to cyclophosphamide: increases sensitivity to
CHP212 cells; CHP212 cells transfected with the labelled siRNA, cyclophosphamide added 24 hr post transfection, 72 hour incubation
  IC50: 0.45 µM
SH-SY5Y cells; SH-SY5Y
  Data Summary: effect of knockdown on sensitivity to cyclophosphamide: increases sensitivity to
SH-SY5Y cells; SH-SY5Y cells transfected with the labelled siRNA, cyclophosphamide added 24 hr post transfection, 72 hour incubation
  IC50: 0.3 µM
SK-N-BE2 cells; SK-N-BE2
  Data Summary: effect of knockdown on sensitivity to cyclophosphamide: increases sensitivity to
SK-N-BE2 cells; SK-N-BE2 cells transfected with the labelled siRNA, cyclophosphamide added 24 hr post transfection, 72 hour incubation
  IC50: 1.8 µM
